Measurements published in patent US20110207804A1, “COMPOSITIONS FOR THE TREATMENT OF NEOPLASTIC DISEASES” (Slotervaart Participaties BV, priority 2008, published 2011).

Legend:
[1] = docetaxel powder dissolution test, 25 mL water in beaker; assay type: physicochemical; conditions: for maximum docetaxel concentration reached / maximum docetaxel in solution, % of total docetaxel present: ±6 mg docetaxel
Description: An amount of powder, equal to approximately 6 mg Docetaxel, was placed in a 50 mL beaker. A magnetic stirring bar and 25 mL water were added to the beaker. The solution was stirred at 720 rpm, and kept at approximately 37° C. Samples were collected at various timepoints, and filtrated using a 0.45 μm filter before they were diluted with a 1:4 v/v mixture of methanol and acetonitrile. The filtrated and diluted samples were subsequently analyzed by HPLC-UV (see table 15).

[2] = clinical phase I trial, docetaxel plasma pharmacokinetics; assay type: in vivo, human; conditions: 20 mg docetaxel liquid formulation; 100 mg ritonavir at t=0 plus 100 mg 4 hours after docetaxel; patient 306
Description: 10 patients participated in an ongoing clinical phase I trial.
These patients were given medication which consisted of a liquid formulation of docetaxel or a solid composition comprising a solid dispersion of docetaxel, PVP-K30 and SDS (referred to hereinafter as MODRA).
Docetaxel dose: 30 mg for all patients (with the exception of patient 306 who received 20 mg docetaxel). The 30 mg dose was prepared as follows: 3.0 mL Taxotere® premix for intravenous administration (containing 10 mg docetaxel per ml in polysorbate 80 (25% v/v), ethanol (10% (w/w), and water) was mixed with water to a final volume of 25 mL. This solution was orally ingested by the patient with 100 mL tap water.
Docetaxel dose: 30 mg; 2 capsules with 15 mg docetaxel per capsule were ingested. Formulation E from the previous example (1/11 docetaxel, 9/11 PVP-K30 and 1/11 SDS) was selected for further testing in the clinical trial. A new batch of formulation E was produced by dissolving 1200 mg docetaxel anhydrate in 120 mL of t-butanol, and 10800 mg PVP-K30 and 1200 mg SDS (see table 13) in 80 mL of Water for Injection. The docetaxel/t-butanol solution was added to the PVP-K30/SDS/WfI solution under constant stirring. […]
The bioavailability of the MODRA capsules was calculated by: […]

| Structure (SMILES) | time at which equilibrium concentration is reached [1] [min] | time of stirring to maximum concentration ([1]; 25 mL WfI, 37° C., 720 rpm) [min] | equilibrium docetaxel in solution, % of total docetaxel present ([1]; after precipitation) [%] | equilibrium docetaxel concentration ([1]; after precipitation, 25 mL WfI, 37° C., 720 rpm) | maximum docetaxel concentration reached ([1]; 25 mL WfI, 37° C., 720 rpm) | maximum docetaxel in solution, % of total docetaxel present ([1]; 25 mL WfI, 37° C., 720 rpm) [%] | solubility from 10 to 60 minutes ([1]; 10 to 60 minutes) | fold increase of docetaxel AUC by second boosting dose of ritonavir [2] [fold] |
| --- | --- | --- | --- | --- | --- | --- | --- | --- |
| CC(=O)O[C@@]12CO[C@@H]1C[C@H](O)[C@@]1(C)C(=O)[C@H](O)C3=C(C)[C@@H](OC(=O)[C@H](O)[C@@H](NC(=O)OC(C)(C)C)c4ccccc4)C[C@@](O)([C@@H](OC(=O)c4ccccc4)[C@H]21)C3(C)C [Formulation A, Anhydrous Docetaxel] | 15 | 5 | ~2 | approximately 6 μg/mL | approximately 12 μg/mL | ~4.7 | – | – |
| CC(=O)O[C@@]12CO[C@@H]1C[C@H](O)[C@@]1(C)C(=O)[C@H](O)C3=C(C)[C@@H](OC(=O)[C@H](O)[C@@H](NC(=O)OC(C)(C)C)c4ccccc4)C[C@@](O)([C@@H](OC(=O)c4ccccc4)[C@H]21)C3(C)C [Formulation B, Amorphous Docetaxel] | – | 0.5 | – | – | 32 µg/mL | 13 | comparable to formulation A | – |
| CC(=O)O[C@@]12CO[C@@H]1C[C@H](O)[C@@]1(C)C(=O)[C@H](O)C3=C(C)[C@@H](OC(=O)[C@H](O)[C@@H](NC(=O)OC(C)(C)C)c4ccccc4)C[C@@](O)([C@@H](OC(=O)c4ccccc4)[C@H]21)C3(C)C [docetaxel] | – | – | – | – | – | – | – | 1.5 |
